Measurements published in paper PMC6522510 (Nature Communications, 2019).
Counter-ions that a name gives are not always drawn. Like-named read-outs stand apart in the source and are kept apart here.

Key:
Set-up in all cases: species or system AML cell lines (8); Primary HTS, single concentration about 10 uM, Cell Titer Glo viability; log10 luminescence, per cent inhibition relative to cycloheximide control
Conditions in all cases: 72 h, relative to cycloheximide control, log10 luminescence, inhibitor
CHRF288-11 = tested on: CHRF288-11
CMK = tested on: CMK
CMS = tested on: CMS
M07e = tested on: M07e
ML-2 = tested on: ML-2
MOLM-13 = tested on: MOLM-13
MV4-11 = tested on: MV4-11
U937 = tested on: U937

Structure (SMILES): O=c1c(Oc2ccc(F)cc2F)cc2cnc(NC3CCOCC3)nc2n1CCCO [SJ000580962-1]
- CHRF288-11 %inh (CHRF288-11): 3.259%
- CMK %inh (CMK): 6.717%
- CMS %inh (CMS): 2.142%
- M07e %inh (M07e): -0.6973%
- ML-2 %inh (ML-2): 1.08%
- MOLM-13 %inh (MOLM-13): 0.8881%
- MV4-11 %inh (MV4-11): 3.176%
- U937 %inh (U937): 2.637%

Structure (SMILES): [O-][S+]1CCN(Cc2ccc(-c3ccc4ncnc(Nc5ccc(OCc6cccc(F)c6)c(Cl)c5)c4c3)o2)CC1 [SJ000573006-1, U16708/127/1]
- CHRF288-11 %inh (CHRF288-11): 12.8%
- CMK %inh (CMK): 4.042%
- CMS %inh (CMS): 4.852%
- M07e %inh (M07e): -1.786%
- ML-2 %inh (ML-2): 0.7137%
- MOLM-13 %inh (MOLM-13): -0.7641%
- MV4-11 %inh (MV4-11): -1.095%
- U937 %inh (U937): -0.3031%

Structure (SMILES): NC(=O)c1cccc(Nc2nccc(Nc3cccc4[nH]ncc34)n2)c1 [SJ000573030-1, JA205171-001A6]
- CHRF288-11 %inh (CHRF288-11): 16.39%
- CMK %inh (CMK): -1.424%
- CMS %inh (CMS): 1.464%
- M07e %inh (M07e): 5.4%
- ML-2 %inh (ML-2): 2.579%
- MOLM-13 %inh (MOLM-13): 22.42%
- MV4-11 %inh (MV4-11): 23.15%
- U937 %inh (U937): -0.8011%

Structure (SMILES): N#Cc1ccc(NCCNCC(=O)N2CCC[C@H]2C#N)nc1 [SJ000772405-1, NVP DPP 728 DIHYDROCHLORIDE]
- CHRF288-11 %inh (CHRF288-11): -4.67%
- CMK %inh (CMK): -0.003306%
- CMS %inh (CMS): 0.6231%
- M07e %inh (M07e): -0.0114%
- ML-2 %inh (ML-2): -1.409%
- MOLM-13 %inh (MOLM-13): -0.2952%
- MV4-11 %inh (MV4-11): -0.757%
- U937 %inh (U937): -2.969%

Structure (SMILES): Clc1cnc(Oc2ccc(Oc3ncc(Cl)cc3Cl)cc2)c(Cl)c1 [SJ000288225-4, TCPOBOP]
- CHRF288-11 %inh (CHRF288-11): 4.243%
- CMK %inh (CMK): -2.209%
- CMS %inh (CMS): -0.7867%
- M07e %inh (M07e): 1.992%
- ML-2 %inh (ML-2): 1.606%
- MOLM-13 %inh (MOLM-13): -2.278%
- MV4-11 %inh (MV4-11): 0.7208%
- U937 %inh (U937): -1.704%

Structure (SMILES): C[C@@H](CS(C)(=O)=O)Nc1ncc2cc(Oc3ccc(F)cc3F)c(=O)n(C)c2n1 [SJ000581059-2]
- CHRF288-11 %inh (CHRF288-11): 4.121%
- CMK %inh (CMK): 2.224%
- CMS %inh (CMS): 1.072%
- M07e %inh (M07e): 9.03%
- ML-2 %inh (ML-2): -1.135%
- MOLM-13 %inh (MOLM-13): 1.811%
- MV4-11 %inh (MV4-11): 3.472%
- U937 %inh (U937): 2.114%

Structure (SMILES): CN1CCN(C2=Nc3ccccc3Oc3ccc(Cl)cc32)CC1 [SJ000286106-7, LOXAPINE SUCCINATE]
- CHRF288-11 %inh (CHRF288-11): 14.63%
- CMK %inh (CMK): -0.3035%
- CMS %inh (CMS): 1.134%
- M07e %inh (M07e): 4.618%
- ML-2 %inh (ML-2): 1.422%
- MOLM-13 %inh (MOLM-13): 7.459%
- MV4-11 %inh (MV4-11): 2.165%
- U937 %inh (U937): 3.14%

Structure (SMILES): CCOC(=O)C1=C(C)NC(C)=C(C(=O)OC)C1c1cccc(Cl)c1Cl (single isomer, unassigned) [SJ000287293-6, FELODIPINE]
- CHRF288-11 %inh (CHRF288-11; CHRF288-11 %inh, 10 µM): 40.78%
- CMK %inh (CMK; CMK %inh, 10 µM): 32.28%
- CMS %inh (CMS; CMS %inh, 10 µM): 3.783%
- M07e %inh (M07e; M07e %inh, 10 µM): 5.04%
- ML-2 %inh (ML-2; ML-2 %inh, 10 µM): 0.03711%
- MOLM-13 %inh (MOLM-13; MOLM-13 %inh, 10 µM): 23.61%
- MV4-11 %inh (MV4-11; MV4-11 %inh, 10 µM): 5.092%
- U937 %inh (U937; U937 %inh, 10 µM): 12.66%

Structure (SMILES): CCn1c(-c2nonc2N)nc2cncc(C(=O)N3CC[C@H](N)C3)c21 [SJ000573211-1, MH203936-065A1]
- CHRF288-11 %inh (CHRF288-11): 24.28%
- CMK %inh (CMK): 50.04%
- CMS %inh (CMS): 6.352%
- M07e %inh (M07e): 8.501%
- ML-2 %inh (ML-2): 13.35%
- MOLM-13 %inh (MOLM-13): 12.04%
- MV4-11 %inh (MV4-11): 35.54%
- U937 %inh (U937): 24.07%

Structure (SMILES): CCCCNc1cc(C(=O)O)cc(S(N)(=O)=O)c1Oc1ccccc1 [SJ000285893-8, BUMETANIDE]
- CHRF288-11 %inh (CHRF288-11; CHRF288-11 %inh, 10 µM): -1.756%
- CMK %inh (CMK; CMK %inh, 10 µM): -0.903%
- CMS %inh (CMS; CMS %inh, 10 µM): 2.258%
- M07e %inh (M07e; M07e %inh, 10 µM): 45.31%
- ML-2 %inh (ML-2; ML-2 %inh, 10 µM): -0.3091%
- MOLM-13 %inh (MOLM-13; MOLM-13 %inh, 10 µM): 2.916%
- MV4-11 %inh (MV4-11; MV4-11 %inh, 10 µM): 2.839%
- U937 %inh (U937; U937 %inh, 10 µM): 0.292%

Structure (SMILES): CCCCCC(=O)O[C@]1(C(C)=O)CC[C@H]2[C@@H]3CCC4=CC(=O)CC[C@]4(C)[C@H]3CC[C@@]21C [SJ000285789-3, HYDROXYPROGESTERONE CAPROATE]
- CHRF288-11 %inh (CHRF288-11): -3.09%
- CMK %inh (CMK): 2.985%
- CMS %inh (CMS): -0.655%
- M07e %inh (M07e): 0.1043%
- ML-2 %inh (ML-2): -1.962%
- MOLM-13 %inh (MOLM-13): 1.659%
- MV4-11 %inh (MV4-11): -1.131%
- U937 %inh (U937): 3.003%

Structure (SMILES): COc1cc(Nc2ncc3c(C)nc(-c4cccc(Oc5ccccc5)c4)n3n2)cc(OC)c1OC [SJ000573063-1, U19891/44/1]
- CHRF288-11 %inh (CHRF288-11): 8.926%
- CMK %inh (CMK): 25.77%
- CMS %inh (CMS): 22.07%
- M07e %inh (M07e): 11.27%
- ML-2 %inh (ML-2): 2.68%
- MOLM-13 %inh (MOLM-13): 53.84%
- MV4-11 %inh (MV4-11): 46.32%
- U937 %inh (U937): 10.08%

Structure (SMILES): O=C1Nc2ccccc2/C1=C/Nc1ccc2[nH]c(=O)[nH]c2c1 [SJ000573356-1, U7003/61/1]
- CHRF288-11 %inh (CHRF288-11): 4.722%
- CMK %inh (CMK): 1.313%
- CMS %inh (CMS): 0.8831%
- M07e %inh (M07e): 4.187%
- ML-2 %inh (ML-2): 0.9059%
- MOLM-13 %inh (MOLM-13): 61.37%
- MV4-11 %inh (MV4-11): 43.08%
- U937 %inh (U937): 2.265%

Structure (SMILES): CCCN1CCC=C(c2ccc(Nc3nc(Nc4ccccc4C(N)=O)c4cc[nH]c4n3)c(C)c2)C1 [SJ000573273-1, U22972/6/1]
- CHRF288-11 %inh (CHRF288-11): 54.2%
- CMK %inh (CMK): 24.28%
- CMS %inh (CMS): 2.734%
- M07e %inh (M07e): 19.9%
- ML-2 %inh (ML-2): 20.08%
- MOLM-13 %inh (MOLM-13): 49.41%
- MV4-11 %inh (MV4-11): 28.66%
- U937 %inh (U937): 14.36%

Structure (SMILES): O=C(O[C@H]1C[C@H]2CC[C@@H](C1)[N+]21CCCC1)C(O)(c1ccccc1)c1ccccc1 [SJ000556733-1, TROSPIUM CHLORIDE]
- CHRF288-11 %inh (CHRF288-11; CHRF288-11 %inh, 10 µM): 1.082%
- CMK %inh (CMK; CMK %inh, 10 µM): -8.303%
- CMS %inh (CMS; CMS %inh, 10 µM): 1.711%
- M07e %inh (M07e; M07e %inh, 10 µM): 0.3246%
- ML-2 %inh (ML-2; ML-2 %inh, 10 µM): 2.085%
- MOLM-13 %inh (MOLM-13; MOLM-13 %inh, 10 µM): -2.987%
- MV4-11 %inh (MV4-11; MV4-11 %inh, 10 µM): -0.2163%
- U937 %inh (U937; U937 %inh, 10 µM): -2.05%

Structure (SMILES): Cc1cc(O)cc(C)c1/C=C/c1cncc(C(=O)N(C)C)c1 [SJ000573241-1, U11962/4/2]
- CHRF288-11 %inh (CHRF288-11): 4.933%
- CMK %inh (CMK): 1.656%
- CMS %inh (CMS): 2.581%
- M07e %inh (M07e): 3.606%
- ML-2 %inh (ML-2): -0.6112%
- MOLM-13 %inh (MOLM-13): -1.208%
- MV4-11 %inh (MV4-11): 0.1016%
- U937 %inh (U937): -1.176%

Structure (SMILES): CNCC#Cc1c(F)ccc2c1/C(=C/c1[nH]ccc1OC)C(=O)N2 [SJ000580999-1]
- CHRF288-11 %inh (CHRF288-11): 56.9%
- CMK %inh (CMK): 104.6%
- CMS %inh (CMS): 90.97%
- M07e %inh (M07e): 73.32%
- ML-2 %inh (ML-2): 60.28%
- MOLM-13 %inh (MOLM-13): 105.9%
- MV4-11 %inh (MV4-11): 85.05%
- U937 %inh (U937): 85.1%
